Laboratory results published in ChEMBL document CHEMBL3286199, “Synthesis, in vitro antimicrobial and cytotoxic activities of novel pyrimidine-benzimidazol combinations” (Bioorg Med Chem Lett, 2014).
pIC50: −log10 of the molar value. Values after ≈ are worked out from the molar mass of the structure shown.

Key:
Staphylococcus aureus = test: Antimicrobial activity against Staphylococcus aureus after 18 to 24 hrs by broth microdilution method; assay type: functional
Bacillus subtilis = test: Antimicrobial activity against Bacillus subtilis after 18 to 24 hrs by broth microdilution method; assay type: functional
Escherichia coli = test: Antimicrobial activity against Escherichia coli after 18 to 24 hrs by broth microdilution method; assay type: functional
[1] = system: Stenotrophomonas maltophilia; test: Antimicrobial activity against Stenotrophomonas maltophilia after 18 to 24 hrs by broth microdilution method; assay type: functional
MGC-803 = test: Cytotoxicity against human MGC803 cells after 72 hrs by MTT assay; assay type: functional, cell-based; details: MGC-803, 72 h
MCF7 = test: Cytotoxicity against human MCF7 cells after 72 hrs by MTT assay; assay type: functional, cell-based; details: MCF7, 72 h
[2] = Cytotoxicity against human EC109 cells after 72 hrs by MTT assay; assay type: functional, cell-based; details: ECa-109, 72 h
PC-3 = test: Cytotoxicity against human PC3 cells after 72 hrs by MTT assay; assay type: functional, cell-based; details: PC-3, 72 h
Candida albicans = test: Antimicrobial activity against Candida albicans after 48 hrs by broth microdilution method; assay type: functional

Compound: C[C@H]1COc2c(N3CCN(C)CC3)c(F)cc3c(=O)c(C(=O)O)cn1c23.C[C@H]1COc2c(N3CCN(C)CC3)c(F)cc3c(=O)c(C(=O)O)cn1c23.O [LEVOFLOXACIN]
- MIC (Staphylococcus aureus): 0.5 µg/mL
- MIC (Bacillus subtilis): 0.25 µg/mL
- MIC (Escherichia coli): 0.125 µg/mL
- MIC [1]: 0.25 µg/mL

Compound: O=c1[nH]cc(F)c(=O)[nH]1 [FLUOROURACIL]
- pIC50 (MGC-803): 5.09
- pIC50 (MCF7): 5.11
- pIC50 [2]: 4.62
- pIC50 (PC-3): 5.33

Compound: Cc1cc(NCCO)nc(SCc2nc3ccccc3[nH]2)n1
- MIC (Staphylococcus aureus): > 128 µg/mL
- MIC (Bacillus subtilis): > 128 µg/mL
- MIC (Escherichia coli): 64 µg/mL (≈ 203 µM)
- MIC [1]: 64 µg/mL (≈ 203 µM)
- MIC (Candida albicans): > 128 µg/mL
- pIC50 (MGC-803): < 4.00
- pIC50 (MCF7): < 4.00
- pIC50 [2]: < 4.00
- pIC50 (PC-3): < 4.00

Compound: COc1ccc(Nc2cc(C)nc(SCc3nc4ccccc4[nH]3)n2)cc1
- MIC (Staphylococcus aureus): 64 µg/mL (≈ 170 µM)
- MIC (Bacillus subtilis): 32 µg/mL (≈ 84.8 µM)
- MIC (Escherichia coli): 128 µg/mL (≈ 339 µM)
- MIC [1]: 16 µg/mL (≈ 42.4 µM)
- MIC (Candida albicans): 64 µg/mL (≈ 170 µM)
- pIC50 (MGC-803): 4.29
- pIC50 (MCF7): 4.21
- pIC50 [2]: 4.16
- pIC50 (PC-3): 4.17

Compound: OC(Cn1cncn1)(Cn1cncn1)c1ccc(F)cc1F [FLUCONAZOLE]
- MIC (Candida albicans): 2 µg/mL (≈ 6.53 µM)

Compound: Cc1cc(N(CCO)CCO)nc(SCc2nc3ccccc3[nH]2)n1
- MIC (Staphylococcus aureus): > 128 µg/mL
- MIC (Bacillus subtilis): > 128 µg/mL
- MIC (Escherichia coli): 64 µg/mL (≈ 178 µM)
- MIC [1]: 128 µg/mL (≈ 356 µM)
- MIC (Candida albicans): > 128 µg/mL
- pIC50 (MGC-803): < 4.00
- pIC50 (MCF7): < 4.00
- pIC50 [2]: < 4.00
- pIC50 (PC-3): < 4.00

Compound: Cc1cc(NC(C)C)nc(SCc2nc3ccccc3[nH]2)n1
- MIC (Staphylococcus aureus): > 128 µg/mL
- MIC (Bacillus subtilis): > 128 µg/mL
- MIC (Escherichia coli): > 128 µg/mL
- MIC [1]: 32 µg/mL (≈ 102 µM)
- MIC (Candida albicans): 128 µg/mL (≈ 408 µM)
- pIC50 (MGC-803): < 4.00
- pIC50 (MCF7): < 4.00
- pIC50 [2]: < 4.00
- pIC50 (PC-3): < 4.00

Compound: Cc1cc(Nc2cccc(C(F)(F)F)c2)nc(SCc2nc3ccccc3[nH]2)n1
- MIC (Staphylococcus aureus): > 128 µg/mL
- MIC (Bacillus subtilis): > 128 µg/mL
- MIC (Escherichia coli): > 128 µg/mL
- MIC [1]: 8 µg/mL (≈ 19.3 µM)
- MIC (Candida albicans): > 128 µg/mL
- pIC50 (MGC-803): < 4.00
- pIC50 (MCF7): < 4.00
- pIC50 [2]: < 4.00
- pIC50 (PC-3): < 4.00

Compound: Cc1cc(N2CCOCC2)nc(SCc2nc3ccccc3[nH]2)n1
- MIC (Staphylococcus aureus): > 128 µg/mL
- MIC (Bacillus subtilis): > 128 µg/mL
- MIC (Escherichia coli): > 128 µg/mL
- MIC [1]: 32 µg/mL (≈ 93.7 µM)
- MIC (Candida albicans): > 128 µg/mL
- pIC50 (MGC-803): < 4.00
- pIC50 (MCF7): < 4.00
- pIC50 [2]: < 4.00
- pIC50 (PC-3): < 4.00

Compound: Cc1cc(N2CCNCC2)nc(SCc2nc3ccccc3[nH]2)n1
- MIC (Staphylococcus aureus): > 128 µg/mL
- MIC (Bacillus subtilis): 128 µg/mL (≈ 376 µM)
- MIC (Escherichia coli): > 128 µg/mL
- MIC [1]: 32 µg/mL (≈ 94 µM)
- MIC (Candida albicans): > 128 µg/mL
- pIC50 (MGC-803): < 4.00
- pIC50 (MCF7): < 4.00
- pIC50 [2]: < 4.00
- pIC50 (PC-3): < 4.00

Compound: Cc1cc(Nc2ccc(F)cc2)nc(SCc2nc3ccccc3[nH]2)n1
- MIC (Staphylococcus aureus): 32 µg/mL (≈ 87.6 µM)
- MIC (Bacillus subtilis): 64 µg/mL (≈ 175 µM)
- MIC (Escherichia coli): 64 µg/mL (≈ 175 µM)
- MIC [1]: 32 µg/mL (≈ 87.6 µM)
- MIC (Candida albicans): 8 µg/mL (≈ 21.9 µM)
- pIC50 (MGC-803): 5.24
- pIC50 (MCF7): 4.37
- pIC50 [2]: 4.16
- pIC50 (PC-3): 4.25

Compound: Cc1ccc(Nc2cc(C)nc(SCc3nc4ccccc4[nH]3)n2)cc1
- MIC (Staphylococcus aureus): 32 µg/mL (≈ 88.5 µM)
- MIC (Bacillus subtilis): 64 µg/mL (≈ 177 µM)
- MIC (Escherichia coli): 32 µg/mL (≈ 88.5 µM)
- MIC [1]: 8 µg/mL (≈ 22.1 µM)
- MIC (Candida albicans): 64 µg/mL (≈ 177 µM)
- pIC50 (MGC-803): 5.13
- pIC50 (MCF7): 4.25
- pIC50 [2]: 4.24
- pIC50 (PC-3): 4.25

Compound: Cc1cc(N(C)Cc2ccccc2)nc(SCc2nc3ccccc3[nH]2)n1
- MIC (Staphylococcus aureus): 128 µg/mL (≈ 341 µM)
- MIC (Bacillus subtilis): > 128 µg/mL
- MIC (Escherichia coli): > 128 µg/mL
- MIC [1]: 16 µg/mL (≈ 42.6 µM)
- MIC (Candida albicans): 128 µg/mL (≈ 341 µM)
- pIC50 (MGC-803): 4.50
- pIC50 (MCF7): < 4.00
- pIC50 [2]: < 4.00
- pIC50 (PC-3): < 4.00

Compound: Cc1cc(Nc2ccc(Br)cc2)nc(SCc2nc3ccccc3[nH]2)n1
- MIC (Staphylococcus aureus): 16 µg/mL (≈ 37.5 µM)
- MIC (Bacillus subtilis): 128 µg/mL (≈ 300 µM)
- MIC (Escherichia coli): 128 µg/mL (≈ 300 µM)
- MIC [1]: 4 µg/mL (≈ 9.38 µM)
- MIC (Candida albicans): 8 µg/mL (≈ 18.8 µM)
- pIC50 (MGC-803): 4.57
- pIC50 (MCF7): 4.42
- pIC50 [2]: 4.37
- pIC50 (PC-3): 4.43

Compound: COc1ccccc1Nc1cc(C)nc(SCc2nc3ccccc3[nH]2)n1
- MIC (Staphylococcus aureus): > 128 µg/mL
- MIC (Bacillus subtilis): 32 µg/mL (≈ 84.8 µM)
- MIC (Escherichia coli): 32 µg/mL (≈ 84.8 µM)
- MIC [1]: 8 µg/mL (≈ 21.2 µM)
- MIC (Candida albicans): 128 µg/mL (≈ 339 µM)
- pIC50 (MGC-803): 4.25
- pIC50 (MCF7): < 4.00
- pIC50 [2]: 4.46
- pIC50 (PC-3): 4.15

Compound: Cc1cc(N2CCCCC2)nc(SCc2nc3ccccc3[nH]2)n1
- MIC (Staphylococcus aureus): > 128 µg/mL
- MIC (Bacillus subtilis): > 128 µg/mL
- MIC (Escherichia coli): > 128 µg/mL
- MIC [1]: 64 µg/mL (≈ 189 µM)
- MIC (Candida albicans): 32 µg/mL (≈ 94.3 µM)
- pIC50 (MGC-803): < 4.00
- pIC50 (MCF7): < 4.00
- pIC50 [2]: < 4.00
- pIC50 (PC-3): < 4.00

Compound: Cc1cc(Nc2ccc(Cl)cc2)nc(SCc2nc3ccccc3[nH]2)n1
- MIC (Staphylococcus aureus): 8 µg/mL (≈ 20.9 µM)
- MIC (Bacillus subtilis): 128 µg/mL (≈ 335 µM)
- MIC (Escherichia coli): 128 µg/mL (≈ 335 µM)
- MIC [1]: 2 µg/mL (≈ 5.24 µM)
- MIC (Candida albicans): 64 µg/mL (≈ 168 µM)
- pIC50 (MGC-803): 4.55
- pIC50 (MCF7): 4.47
- pIC50 [2]: 4.69
- pIC50 (PC-3): 4.44

Compound: Cc1cc(NNC(N)=S)nc(SCc2nc3ccccc3[nH]2)n1
- MIC (Staphylococcus aureus): > 128 µg/mL
- MIC (Bacillus subtilis): > 128 µg/mL
- MIC (Escherichia coli): > 128 µg/mL
- MIC [1]: 128 µg/mL (≈ 371 µM)
- MIC (Candida albicans): 128 µg/mL (≈ 371 µM)
- pIC50 (MGC-803): < 4.00
- pIC50 (MCF7): < 4.00
- pIC50 [2]: < 4.00
- pIC50 (PC-3): < 4.00
